Data on 19 molecules can be found in patent publication US10259810B2, “N-sulfonylated pyrazolo[3,4-b]pyridin-6-carboxamides and method of use” (AbbVie S.à.r.l., priority 2015, dated 2019).

SMILES strings stand for the structures.

For assay [1], the target named is T1, ΔF508-CFTR (Homo sapiens, UniProt P13569, DEL508-508).
T1 construct: host or cells: CFBE41o-, doxycycline-inducible
Description: CFTR cell surface levels using HRP-tagged ΔF508-CFTR expressing CFBE cells, in the presence of a co-corrector. Format: cell-based. The settings on record: HRP-tagged ΔF508-CFTR CFBE cells, in the presence of 3 μM co-corrector; for EC50: read-out: EC50. A digest of the protocol: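 Chemiluminescent read-out of surface HRP (15 min, dark) after PBS washes. Activity is normalized as 100×(sample−DMSO)/(3 μM co-corrector alone−DMSO).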

Assay [2] concerns the target T1, ΔF508-CFTR. Description: CFTR cell surface levels using HRP-tagged ΔF508-CFTR expressing CFBE cells, intrinsic corrector capacity. It counts as cell-based. Also on record: % Activation: concentration or dose not given beside the values. Particulars: HRP-tagged ΔF508-CFTR expressing CFBE41o- cells, compound alone (intrinsic corrector capacity), 20 hours at 33° C.; for EC50: read-out: EC50. A digest of the protocol:
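Read-out: chemiluminescent HRP activity of ECL4-HRP-tagged ΔF508-CFTR at the cell surface, 15 min substrate in dark. Normalized as 100×(sample−DMSO)/(positive control−DMSO).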

T1 sequence (P13569 with tags, fused parts or gaps DEL508-508): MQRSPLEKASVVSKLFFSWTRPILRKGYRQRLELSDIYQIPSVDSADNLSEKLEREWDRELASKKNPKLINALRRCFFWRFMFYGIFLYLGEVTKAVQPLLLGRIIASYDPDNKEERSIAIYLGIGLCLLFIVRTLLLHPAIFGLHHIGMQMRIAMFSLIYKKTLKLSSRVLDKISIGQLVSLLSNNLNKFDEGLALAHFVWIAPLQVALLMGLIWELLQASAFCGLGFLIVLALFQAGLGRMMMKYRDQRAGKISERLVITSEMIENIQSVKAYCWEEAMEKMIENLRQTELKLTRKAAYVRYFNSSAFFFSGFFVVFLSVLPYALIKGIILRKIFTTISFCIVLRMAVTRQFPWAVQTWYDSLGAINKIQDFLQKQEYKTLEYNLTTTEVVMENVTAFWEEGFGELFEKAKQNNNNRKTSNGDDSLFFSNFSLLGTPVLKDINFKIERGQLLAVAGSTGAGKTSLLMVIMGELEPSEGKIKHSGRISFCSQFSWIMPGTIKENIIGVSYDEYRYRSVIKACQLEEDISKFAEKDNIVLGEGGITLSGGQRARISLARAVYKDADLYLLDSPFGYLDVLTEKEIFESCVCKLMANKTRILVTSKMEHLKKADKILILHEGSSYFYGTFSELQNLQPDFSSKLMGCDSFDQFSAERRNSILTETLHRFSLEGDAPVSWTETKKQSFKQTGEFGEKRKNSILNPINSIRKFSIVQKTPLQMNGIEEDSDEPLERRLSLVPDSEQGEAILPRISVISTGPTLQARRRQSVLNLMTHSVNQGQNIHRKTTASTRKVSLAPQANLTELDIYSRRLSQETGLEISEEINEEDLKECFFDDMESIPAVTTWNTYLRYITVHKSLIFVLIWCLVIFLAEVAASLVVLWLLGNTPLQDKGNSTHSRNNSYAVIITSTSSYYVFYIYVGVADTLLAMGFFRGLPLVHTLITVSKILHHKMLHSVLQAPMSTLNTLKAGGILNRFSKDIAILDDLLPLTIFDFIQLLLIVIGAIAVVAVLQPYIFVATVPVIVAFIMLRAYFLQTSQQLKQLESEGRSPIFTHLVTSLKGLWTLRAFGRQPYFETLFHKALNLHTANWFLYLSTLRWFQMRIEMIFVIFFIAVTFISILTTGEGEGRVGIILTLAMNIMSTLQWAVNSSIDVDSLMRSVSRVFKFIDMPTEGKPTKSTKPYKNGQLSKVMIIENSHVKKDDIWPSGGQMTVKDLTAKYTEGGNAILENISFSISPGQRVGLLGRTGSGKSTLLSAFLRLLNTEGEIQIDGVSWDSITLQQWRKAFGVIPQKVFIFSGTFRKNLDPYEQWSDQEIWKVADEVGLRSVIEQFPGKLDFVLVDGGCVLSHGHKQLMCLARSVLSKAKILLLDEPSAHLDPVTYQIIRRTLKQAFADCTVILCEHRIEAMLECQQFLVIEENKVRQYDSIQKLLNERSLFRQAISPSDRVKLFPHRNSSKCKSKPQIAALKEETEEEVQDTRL

On to `CCS(=O)(=O)NC(=O)c1cc(-c2ccc(N3CCOCC3)nc2)c2c(C)nn(-c3cccc(C(F)(F)F)c3)c2n1` [Compound 58, N-(ethanesulfonyl)-3-methyl-4-[6-(morpholin-4-yl)pyridin-3-yl]-1-[3-(trifluoromethyl)phenyl]-1H-pyrazolo[3,4-b]pyridine-6-carboxamide], for which, at ΔF508-CFTR [1], the “% Activation” value stood at 352.5% and the EC50 (in general, the concentration that produces a half-maximal response) came to 422 nM. Also, at ΔF508-CFTR [2], the “% Activation” value came to 196.2% and the EC50 came out at 756 nM.

On to `CC(C)c1nn(-c2cccc(N(C)C)c2)c2nc(C(=O)NS(C)(=O)=O)cc(-c3cnc(N4CCOCC4)nc3)c12` [Compound 59, 1-[3-(dimethylamino)phenyl]-N-(methanesulfonyl)-4-[2-(morpholin-4-yl)pyrimidin-5-yl]-3-(propan-2-yl)-1H-pyrazolo[3,4-b]pyridine-6-carboxamide], for which, at ΔF508-CFTR [1], the “% Activation” value is reported as 534.8% and the EC50 is 482 nM. On ΔF508-CFTR [2], the “% Activation” value is 317.3% and the EC50 was determined as 777 nM.

As for `Cc1nn(-c2ccc(F)cc2F)c2nc(C(=O)NS(C)(=O)=O)cc(-c3ccc(N4CCOCC4)nc3)c12` [Compound 60, 1-(2,4-difluorophenyl)-N-(methanesulfonyl)-3-methyl-4-[6-(morpholin-4-yl)pyridin-3-yl]-1H-pyrazolo[3,4-b]pyridine-6-carboxamide], on ΔF508-CFTR [1], the “% Activation” value worked out at 323.63% and the EC50 amounted to 351 nM. Moreover, at ΔF508-CFTR [2], the “% Activation” value came to 160.43% and the half-maximal effective concentration (EC50) turned out to be 394 nM.

On to `CCS(=O)(=O)NC(=O)c1cc(-c2ccc(N3CCOCC3)nc2)c2c(C)nn(-c3ccc(F)cc3F)c2n1` [Compound 61, 1-(2,4-difluorophenyl)-N-(ethanesulfonyl)-3-methyl-4-[6-(morpholin-4-yl)pyridin-3-yl]-1H-pyrazolo[3,4-b]pyridine-6-carboxamide], for which, on ΔF508-CFTR [1], the “% Activation” value was 415.3% and the EC50 amounted to 506 nM. For the same molecule, at ΔF508-CFTR [2], the “% Activation” value is given as 184.35% and the concentration for a half-maximal effect (EC50) amounted to 1000 nM.

Take `CCS(=O)(=O)NC(=O)c1cc(-c2cnc(N3CCOCC3)nc2)c2c(C(C)C)nn(-c3cccc(N(C)C)c3)c2n1` [Compound 62, 1-[3-(dimethylamino)phenyl]-N-(ethanesulfonyl)-4-[2-(morpholin-4-yl)pyrimidin-5-yl]-3-(propan-2-yl)-1H-pyrazolo[3,4-b]pyridine-6-carboxamide]: on ΔF508-CFTR [1], the “% Activation” value came out at 631.2% and the concentration for a half-maximal effect (EC50) is 532 nM. Further, at ΔF508-CFTR [2], the “% Activation” value was 350.85% and the EC50 is 596 nM.

Turning to `CC(C)c1nn(C2CCCCC2)c2nc(C(=O)NS(C)(=O)=O)cc(-c3ccc(N4CCC(F)(F)C4)nc3)c12` [Compound 64, 1-cyclohexyl-4-[6-(3,3-difluoropyrrolidin-1-yl)pyridin-3-yl]-N-(methanesulfonyl)-3-(propan-2-yl)-1H-pyrazolo[3,4-b]pyridine-6-carboxamide], on ΔF508-CFTR [1], the “% Activation” value is given as 362.45% and the EC50 is 444 nM. Also, on ΔF508-CFTR [2], the “% Activation” value stood at 152.75% and the EC50 came to 935 nM.

For `Cc1nn(-c2cccc(Cl)c2)c2nc(C(=O)NS(C)(=O)=O)cc(-c3ccc(N4CCOCC4)cc3)c12` [Compound 65, 1-(3-chlorophenyl)-N-(methanesulfonyl)-3-methyl-4-[4-(morpholin-4-yl)phenyl]-1H-pyrazolo[3,4-b]pyridine-6-carboxamide], on ΔF508-CFTR [1], the “% Activation” value was found to be 332.05% and the EC50 is 464 nM. Further, at ΔF508-CFTR [2], the “% Activation” value turned out to be 162.33% and the EC50 was 1530 nM.

`CCS(=O)(=O)NC(=O)c1cc(-c2ccc(N3CCOCC3)cc2)c2c(C)nn(-c3cccc(Cl)c3)c2n1` [Compound 66, 1-(3-chlorophenyl)-N-(ethanesulfonyl)-3-methyl-4-[4-(morpholin-4-yl)phenyl]-1H-pyrazolo[3,4-b]pyridine-6-carboxamide]: the “% Activation” value was found to be 332.85% on ΔF508-CFTR [1] and 142.65% at ΔF508-CFTR [2]. The EC50 was 6670 nM at ΔF508-CFTR [1] and 1860 nM at ΔF508-CFTR [2].

With `Cc1nn(-c2cccc(F)c2)c2nc(C(=O)NS(C)(=O)=O)cc(-c3ccc(N4CCOCC4)cc3)c12` [Compound 67, 1-(3-fluorophenyl)-N-(methanesulfonyl)-3-methyl-4-[4-(morpholin-4-yl)phenyl]-1H-pyrazolo[3,4-b]pyridine-6-carboxamide], at ΔF508-CFTR [1], the “% Activation” value is 371.62% and the EC50 came out at 241 nM. Moreover, on ΔF508-CFTR [2], the “% Activation” value was found to be 181.96% and the EC50 came out at 362 nM.

Take `CCS(=O)(=O)NC(=O)c1cc(-c2ccc(N3CCOCC3)cc2)c2c(C)nn(-c3cccc(F)c3)c2n1` [Compound 68, N-(ethanesulfonyl)-1-(3-fluorophenyl)-3-methyl-4-[4-(morpholin-4-yl)phenyl]-1H-pyrazolo[3,4-b]pyridine-6-carboxamide]: the “% Activation” value on ΔF508-CFTR [1] came to 456.6%; at ΔF508-CFTR [2], 253.3%. The EC50 on ΔF508-CFTR [1] turned out to be 847 nM; at ΔF508-CFTR [2], 1080 nM.

In the case of `Cc1nn(-c2ccc(OC(F)(F)F)cc2)c2nc(C(=O)NS(C)(=O)=O)cc(-c3ccc(N4CCOCC4)cc3)c12` [Compound 69, N-(methanesulfonyl)-3-methyl-4-[4-(morpholin-4-yl)phenyl]-1-[4-(trifluoromethoxy)phenyl]-1H-pyrazolo[3,4-b]pyridine-6-carboxamide], the “% Activation” value at ΔF508-CFTR [1] is recorded as 362.03%; on ΔF508-CFTR [2], 182.08%. The results for the 50% effective concentration (EC50) on ΔF508-CFTR [1] and at ΔF508-CFTR [2] were 404 nM and 632 nM, respectively.

`CCS(=O)(=O)NC(=O)c1cc(-c2ccc(N3CCOCC3)cc2)c2c(C)nn(-c3ccc(OC(F)(F)F)cc3)c2n1` [Compound 70, N-(ethanesulfonyl)-3-methyl-4-[4-(morpholin-4-yl)phenyl]-1-[4-(trifluoromethoxy)phenyl]-1H-pyrazolo[3,4-b]pyridine-6-carboxamide]: on ΔF508-CFTR [1], the “% Activation” value amounted to 342.85% and the EC50 was found to be 410 nM. Further, at ΔF508-CFTR [2], the “% Activation” value worked out at 167.8% and the EC50 was found to be 621 nM.

Consider `COc1cccc(-n2nc(C)c3c(-c4ccc(N5CCOCC5)cc4)cc(C(=O)NS(C)(=O)=O)nc32)c1` [Compound 72, N-(methanesulfonyl)-1-(3-methoxyphenyl)-3-methyl-4-[4-(morpholin-4-yl)phenyl]-1H-pyrazolo[3,4-b]pyridine-6-carboxamide], for which the “% Activation” value on ΔF508-CFTR [1] was determined as 400.9%; at ΔF508-CFTR [2], 232.5%. Besides, the EC50 stood at 5610 nM at ΔF508-CFTR [1] and 2230 nM at ΔF508-CFTR [2].

For the molecule `CCS(=O)(=O)NC(=O)c1cc(-c2ccc(N3CCOCC3)cc2)c2c(C)nn(-c3cccc(OC)c3)c2n1` [Compound 73, N-(ethanesulfonyl)-1-(3-methoxyphenyl)-3-methyl-4-[4-(morpholin-4-yl)phenyl]-1H-pyrazolo[3,4-b]pyridine-6-carboxamide], the “% Activation” value is recorded as 423.35% at ΔF508-CFTR [1] and 254.1% at ΔF508-CFTR [2]. Moreover, the EC50 amounted to 490 nM on ΔF508-CFTR [1] and 657 nM on ΔF508-CFTR [2].

Regarding `COCCN(C)c1cccc(-n2nc(C(C)C)c3c(-c4ccc(N5CCOCC5)cc4)cc(C(=O)NS(C)(=O)=O)nc32)c1` [Compound 76, N-(methanesulfonyl)-1-{3-[(2-methoxyethyl)(methyl)amino]phenyl}-4-[4-(morpholin-4-yl)phenyl]-3-(propan-2-yl)-1H-pyrazolo[3,4-b]pyridine-6-carboxamide], at ΔF508-CFTR [1], the “% Activation” value worked out at 581.37% and the EC50 amounted to 633 nM. Besides, at ΔF508-CFTR [2], the “% Activation” value came to 430.87% and the 50% effective concentration (EC50) was determined as 528 nM.

As to `CC(C)c1nn(-c2cccc(N(C)C)c2)c2nc(C(=O)NS(C)(=O)=O)cc(-c3cnc(N(C)C)nc3)c12` [Compound 77, 1-[3-(dimethylamino)phenyl]-4-[2-(dimethylamino)pyrimidin-5-yl]-N-(methanesulfonyl)-3-(propan-2-yl)-1H-pyrazolo[3,4-b]pyridine-6-carboxamide], on ΔF508-CFTR [1], the “% Activation” value is listed as 449.85% and the concentration for a half-maximal effect (EC50) came to 831 nM. For the same molecule, on ΔF508-CFTR [2], the “% Activation” value was 296.45% and the EC50 was 639 nM.

In the case of `CCS(=O)(=O)NC(=O)c1cc(-c2cnc(N(C)C)nc2)c2c(C(C)C)nn(-c3cccc(N(C)C)c3)c2n1` [Compound 78, 1-[3-(dimethylamino)phenyl]-4-[2-(dimethylamino)pyrimidin-5-yl]-N-(ethanesulfonyl)-3-(propan-2-yl)-1H-pyrazolo[3,4-b]pyridine-6-carboxamide], on ΔF508-CFTR [1], the “% Activation” value is 520.7% and the concentration for a half-maximal effect (EC50) stood at 660 nM. On ΔF508-CFTR [2], the “% Activation” value is 333.2% and the 50% effective concentration (EC50) is 1880 nM.

Turning to `CC(=O)Nc1ccc(-c2cc(C(=O)NS(C)(=O)=O)nc3c2c(C(C)C)nn3C2CCCCC2)cc1` [Compound 79, 4-(4-acetamidophenyl)-1-cyclohexyl-N-(methanesulfonyl)-3-(propan-2-yl)-1H-pyrazolo[3,4-b]pyridine-6-carboxamide], on ΔF508-CFTR [1], the “% Activation” value was 501.6% and the EC50 was 555 nM. For the same molecule, at ΔF508-CFTR [2], the “% Activation” value is listed as 280.9% and the EC50 was found to be 1230 nM.

For the molecule `CC(C)c1nn(-c2cccc(N(C)C)c2)c2nc(C(=O)NS(C)(=O)=O)cc(-c3ccc(N4CCC(C#N)CC4)cc3)c12` [Compound 81, 4-[4-(4-cyanopiperidin-1-yl)phenyl]-1-[3-(dimethylamino)phenyl]-N-(methanesulfonyl)-3-(propan-2-yl)-1H-pyrazolo[3,4-b]pyridine-6-carboxamide], the “% Activation” value is given as 646.44% at ΔF508-CFTR [1] and 495.8% on ΔF508-CFTR [2]. In addition, the concentration giving a half-maximal response (EC50) on ΔF508-CFTR [1] was 253 nM; on ΔF508-CFTR [2] it was 385 nM.
